Holding throughout (assay): growth of human tumour cells (NCI), 48 h
Assay [1] deals with CAKI-1 renal.
Assay [2] relates to COLO 205 colon.
The test system of assay [3] is HL-60(TB) leukemia.
For assay [4], the system named is HS 578T breast.
The subject of assay [5] is IGROV1 ovarian.
In assay [6] the test system is K-562 leukemia.
Assay [7] deals with PC-3 prostate.
The subject of assay [8] is SN12C renal.
For assay [9], the system named is SW-620 colon.
In assay [10] the test system is T-47D breast.

Values joined by “and” are separate entries in the source; they are usually repeats but may differ in a detail not shown here. Equal entries are not always repeated.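 96-well plates; 48 h exposure; 5 concentrations. Endpoints by linear interpolation between flanking doses. Not reached: highest tested concentration assigned. The concentration for 50% growth inhibition is given as GI50. TGI: total growth inhibition.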

Take `COC1=CC(=O)c2c(O)c3c(c(O)c2C1=O)OC1(Oc2c(cc4cc(C)oc(=O)c4c2O)CC1O)C3O` (stereo not given): the TGI is 53.9 µM in assay [1]; greater than 100 µM in [2]; greater than 100 µM in assay [3]; greater than 100 µM in [4]; 66.5 µM in [5]; greater than 100 µM in assay [6]. Also, the TGI is greater than 100 µM in [7], 49.3 µM in assay [8], greater than 100 µM in assay [9] and greater than 100 µM in [10].
Consider `CC[C@]12C=CCN3CC[C@@]4(c5ccc(OC)cc5N(C)[C@H]4[C@@](O)(C(=O)OC)[C@@H]1OC(=O)CCCC[P+](c1ccccc1)(c1ccccc1)c1ccccc1)[C@@H]32`, for which the GI50 in assay [1] was 3.61 µM; in [2], 0.242 µM; in assay [3], 0.34 µM; in assay [4] it was 1.34 µM; in assay [5] it was 0.486 µM; in assay [6], 0.789 µM. Besides, the GI50 in assay [7] was 0.391 µM; in assay [8], 0.414 µM; in assay [9], 1.14 µM; in assay [10], 0.396 µM. The TGI worked out at 13.7 µM in [1]; 0.586 µM in [2]; 1.15 µM in assay [3]; 9.11 µM in [4]; 1.98 µM in [5]; 11.4 µM in assay [6]. Besides, the TGI in assay [7] came to 7.77 µM; in assay [8], 8.26 µM; in assay [9] it was 12.6 µM; in assay [10], 12.7 µM.
`Cc1cc(C)nc(NS(=O)(=O)c2ccc(Nc3nc4nc(NCc5ccccc5)nc(-c5ccc(O)cc5)c4c(=O)[nH]3)cc2)n1`: the GI50 was 57.2 µM in assay [1]; 81.8 µM in [2]; 8.41 µM in [3]; 14.6 µM in [4]; 0.663 µM in [5]; 4.84 µM in [6]. In addition, the GI50 in assay [7] was 19.8 µM; in [8] it was 25.1 µM; in [9], 26.7 µM; in [10], 18.4 µM. Besides, the TGI in [1] was greater than 100 µM; in assay [2], greater than 100 µM; in [3], 36.2 µM; in assay [4], 88.6 µM; in assay [5], 7.52 µM; in assay [6], greater than 100 µM. Further, the TGI in assay [7], in [8], in assay [9] and in [10] was greater than 100 µM in each case.
As to `CS(=O)(=O)OCCCCOS(C)(=O)=O`, the GI50 was 305 µM in assay [1]; greater than 1000 µM in assay [2]; 212 µM in [3]; greater than 555 µM in assay [4]; 981 µM in assay [5]; 795 µM in assay [6]. The GI50 in assay [7] was greater than 1000 µM; in [8], 623 µM; in [9] it was greater than 1000 µM; in [10], 336 µM. For the same compound, the TGI in assay [1] is 212 µM and 980 µM; in assay [2], 250 µM and > 1000 µM; in assay [3], 224 µM and 858 µM; in [4], greater than 1000 µM; in [5] it was greater than 1000 µM; in [6], 223 µM and > 1000 µM. Besides, the TGI in [7] is 250 µM and > 1000 µM; in assay [8], 250 µM and > 1000 µM; in [9], 250 µM and > 1000 µM; in [10], greater than 464 µM.
With `O=C1c2cccc3c([N+](=O)[O-])ccc(c23)C(=O)N1CCCCl`, the GI50 in assay [1] was greater than 10 µM; in assay [2], greater than 10 µM; in [3], 5.18 µM; in assay [4], 4.6 µM; in [5] it was 1.9 µM; in assay [6] it was 3.04 µM. The GI50 in assay [7] was 7.49 µM; in [8], 5 µM; in [9], 2.08 µM; in [10], 2.65 µM. Further, the TGI in assay [1] was greater than 10 µM; in assay [2] it was greater than 10 µM; in assay [3] it was greater than 10 µM; in assay [4], greater than 10 µM; in assay [5], 5 µM; in [6], greater than 10 µM. Also, the TGI is greater than 10 µM in [7], greater than 10 µM in assay [8], 5.95 µM in assay [9] and greater than 10 µM in [10].
Take `CC(C)(C)n1nc(C2CC2)cc1NC(=O)Nc1ccc(Cl)cc1`: the TGI in assay [1], in assay [2], in assay [3], in assay [4], in assay [5] and in assay [6] was greater than 100 µM throughout. The TGI in assay [7], in assay [8], in assay [9] and in assay [10] was greater than 100 µM throughout.
`COc1ccccc1CN=C1NC(=O)/C(=C/c2ccc3ncccc3c2)S1`: the GI50 in assay [1] was 6.84 µM; in [2], 5.92 µM; in [3] it was 10.3 µM; in [4], 6.61 µM; in [5], 6.56 µM; in assay [6] it was 8.4 µM. Besides, the GI50 was 18.5 µM in assay [7], 7.8 µM in [8], 4.54 µM in [9] and 8.13 µM in assay [10]. The TGI was greater than 25 µM in assay [1]; greater than 24.1 µM in [2]; greater than 25 µM in [3]; greater than 24.1 µM in [4]; greater than 19.4 µM in assay [5]; greater than 25 µM in [6]. For the same compound, the TGI was greater than 25 µM in assay [7], greater than 25 µM in assay [8], greater than 25 µM in [9] and 24.3 µM in [10].
`COc1ccc(-c2cnc(SCC(=O)c3c(C)n(C)n(-c4ccccc4)c3=O)n2-c2ccc(OC)cc2)cc1`: the GI50 in assay [1] was greater than 50 µM; in assay [2] it was greater than 50 µM; in [3] it was 36.8 µM; in assay [4] it was 42.6 µM; in assay [5], greater than 50 µM; in assay [6], 33.2 µM. Further, the GI50 is 40.1 µM in assay [7], greater than 50 µM in assay [8], greater than 50 µM in assay [9] and greater than 50 µM in assay [10]. For the same compound, the TGI in assay [1], in assay [2], in [3], in assay [4], in assay [5] and in assay [6] was greater than 50 µM each time. The TGI in [7], in assay [8], in assay [9] and in [10] was greater than 50 µM each time.

The record behind these values is PubChem BioAssay (NCI).
